3 compounds from the NIST ThermoML archive (doi:10.1016/j.tca.2015.09.023) can be followed below.

± gives the expanded uncertainty stated by the source.

The conditions of data set [1]: Crystal; DTA.
Data set [2] in a line: Molar enthalpy of transition or fusion. Conditions: Crystal; DSC.

For the compound `CN1C(=O)N[C@@H]2NC(=O)N[C@@H]21` (racemic), the Normal melting temperature in data set [1] came to 261.6 ± 0.4 °C. Moreover, the “Molar enthalpy of transition or fusion” value in data set [2] was found to be 8.15 ± 0.191 kcal/mol.
The matching figures for `CN1C(=O)N[C@H]2[C@@H]1N(C)C(=O)N2C` (racemic): 92.6 ± 0.4 °C and 4.8 ± 0.167 kcal/mol.
The matching figures for `CN1C(=O)N[C@H]2[C@@H]1NC(=O)N2C` (racemic): 277.1 ± 0.4 °C and 5.83 ± 0.167 kcal/mol.
